Experimental data from paper PMC4476799, “Englerin A Agonizes the TRPC4/C5 Cation Channels to Inhibit Tumor Cell Line Proliferation” (PLoS ONE, 2015).
Where two headings read alike, the source gives them in different places.

Test system: cancer cell lines from the cancer cell line encyclopedia (CCLE)
Test: Cell line profiling (CLiP) proliferation experiment
Type: cell-based
Design: ACTIVITY_AREA: scale not given here; AMAX: unit not given here
Conditions: for EC50: read-out: Inflection Point; for IC50: read-out: Crossing Point
Experimental: Compound profiling experiment and data analysis was performed as previously described. Data was imported and plotted using the Tibco Spotfire DXP application. Lines were categorized as sensitive, intermediate and refractory as follows: Amax<-40 & Inflection Point <2 ~ Sensitive, Amax>-20 & Inflection Point >10 ~ Refractory, all else were called Intermediate. Cancer Cell line HG-U133 Plus 2 data was processed and normalized as described. […] Five sets of refractory cell lines were generated from the pool of refractory cell lines trying to match the lineage composition of the set of sensitive cell lines. The limma package was used as previously described to perform the statistical comparison.

[1] = NCI-H2073, NCI-H2073, lung, adenocarcinoma
[2] = OCI-M1, OCI-M1, haematopoietic_and_lymphoid_tissue, acute_myeloid_leukaemia
[3] = PaTuÂ 8988s, cell line PA-TU-8988S
[4] = SH-10-TC, cell line SH-10-TC, stomach
[5] = SNU878, cell line SNU-878, liver, hepatocellular_carcinoma
[6] = SUP-M2, SUP-M2 (haematopoietic_and_lymphoid_tissue, anaplastic_large_cell_lymphoma)
[7] = T24 (urinary_tract, transitional_cell_carcinoma)
[8] = T84 (large_intestine, adenocarcinoma)
[9] = TE-1 (oesophagus, squamous_cell_carcinoma)
[10] = TEN (endometrium, clear_cell_carcinoma)
[11] = TT2609-C02 (thyroid, follicular_carcinoma)
[12] = U266B1 (haematopoietic_and_lymphoid_tissue, plasma_cell_myeloma)

## CC(C)[C@@]12C[C@@H](O)[C@@](C)(O1)[C@@H]1CC[C@@H](C)[C@H]1[C@@H]2OC(=O)/C=C/c1ccccc1 [Englerin B]
NCI-H1869, lung, squamous_cell_carcinoma
  EC50: 2.95 µM
NCI-H1869 cells
  IC50: > 30 µM
  EC50: 2.95 µM
NCI-H2023, NCI-H2023, lung, adenocarcinoma
  IC50: 13.3 µM
[1]
  IC50: 24 µM
  EC50: 20.3 µM
NCI-H2106, lung, non_small_cell_carcinoma
  IC50: > 30 µM
NCI-H2172, NCI-H2172, lung, non_small_cell_carcinoma
  IC50: 24.8 µM
NCI-H2330, lung, small_cell_carcinoma
  IC50: > 30 µM
OC 316, ovary, adenocarcinoma
  IC50: > 30 µM
[2]
  IC50: 13.5 µM
  EC50: 11.8 µM
OCI-M1, OCI-M1 cells
  EC50: 11.8 µM
OMM2.3 (eye)
  IC50: > 30 µM
OMM2.5 cells
  IC50: > 30 µM
ONCO-DG-1, cell line ONCO-DG-1
  IC50: 3.52 µM
OUMS-23, OUMS-23 cells
  EC50: 17.7 µM
OUMS-23, cell line OUMS-23
  IC50: 14.8 µM
  EC50: 17.7 µM
OV7, OV7 cells
  IC50: > 30 µM
OV56, OV56 cells
  IC50: > 30 µM
OV56, cell line OV56
  IC50: > 30 µM
PL-21, PL-21 cells
  EC50: 26.2 µM
PL-21, cell line PL-21
  IC50: 21 µM
  EC50: 26.2 µM
[3]
  IC50: 23.3 µM
  EC50: 23.3 µM
RCC10RGB cells
  IC50: > 30 µM
RCH-ACV cells
  EC50: 12.1 µM
RERF-LC-AI cells
  IC50: > 30 µM
  EC50: 17.9 µM
RKN (soft_tissue)
  IC50: > 30 µM
RKO (large_intestine)
  EC50: 13.1 µM
RMUG-S (ovary)
  IC50: > 30 µM
Ri-1, RI-1 cells
  IC50: 9.99 µM
  EC50: 9.99 µM
SH-4 (skin)
  IC50: > 30 µM
SH-10-TC, SH-10-TC (stomach)
  IC50: > 30 µM
[4]
  IC50: > 30 µM
  EC50: 11.1 µM
SNG-M (endometrium)
  IC50: > 30 µM
[5]
  IC50: 27.3 µM
  EC50: 27.3 µM
SNU-119 (ovary)
  IC50: > 30 µM
SNU-216, SNU-216 (stomach)
  IC50: > 30 µM
SNU-216, cell line SNU-216, stomach
  IC50: > 30 µM
SNU-738 (central_nervous_system)
  IC50: > 30 µM
SNU-C5 (large_intestine)
  IC50: > 30 µM
SNU-C5 (large_intestine, adenocarcinoma)
  IC50: > 30 µM
SR-786, SR-786 (haematopoietic_and_lymphoid_tissue)
  IC50: > 30 µM
SR-786, SR-786 (haematopoietic_and_lymphoid_tissue, anaplastic_large_cell_lymphoma)
  IC50: > 30 µM
SUM52, SUM-52 (breast)
  IC50: > 30 µM
SUM52, SUM-52 (breast, NS)
  IC50: > 30 µM
SUM52PE, SUM52PE (breast)
  IC50: > 30 µM
SUM52PE, SUM52PE (breast, NS)
  IC50: > 30 µM
[6]
  IC50: 18.2 µM
  EC50: 18.2 µM
SUP-M2, SUP-M2 cells
  IC50: 18.2 µM
  EC50: 18.2 µM
SW1271, SW 1271 (lung)
  IC50: > 30 µM
SW1271, SW 1271 (lung, small_cell_carcinoma)
  IC50: > 30 µM
T24 (urinary_tract)
  IC50: > 30 µM
[7]
  IC50: > 30 µM
  EC50: 5 µM
[8]
  IC50: 28.3 µM
  EC50: 9.52 µM
T778 (soft_tissue)
  IC50: > 30 µM
T778 (soft_tissue, well_differentiated)
  IC50: > 30 µM
TC-71, TC-71 (bone, NS)
  IC50: 25.2 µM
TE 617.T (soft_tissue, NS)
  IC50: 16.5 µM
  EC50: 11.9 µM
TE 617.T cells
  EC50: 11.9 µM
[9]
  IC50: 18.9 µM
  EC50: 16.5 µM
TE-5 (oesophagus, squamous_cell_carcinoma)
  IC50: 29.6 µM
TE-6 (oesophagus, squamous_cell_carcinoma)
  IC50: 23.8 µM
TEN (endometrium)
  IC50: > 30 µM
[10]
  IC50: > 30 µM
  EC50: 13.1 µM
TF-1 (haematopoietic_and_lymphoid_tissue, acute_myeloid_leukaemia)
  IC50: 16.7 µM
[11]
  IC50: 22.3 µM
  EC50: 14.6 µM
TT2609-C02 cells
  EC50: 14.6 µM
U266B1 (haematopoietic_and_lymphoid_tissue)
  IC50: > 30 µM
[12]
  IC50: > 30 µM
  EC50: 16 µM
UACC-62 cell line, skin, NS
  ACTIVITY_AREA: 41.15
  AMAX: -44.29
  RESPONSE: INTERMEDIATE
UACC-257 (skin, NS)
  ACTIVITY_AREA: 31.33
  AMAX: -80.26
  RESPONSE: INTERMEDIATE
